For 8 compounds, EC50 results are on record in patent US11970483B2, “Heterocyclic compound” (Takeda Pharmaceutical Company Limited, priority 2018, dated 2024).

The target of this experiment is T1, human M1 receptor (hCHRM1) (Homo sapiens, UniProt P11229).
T1 construct: expressed in transfected cells
T1 sequence (P11229 1-460): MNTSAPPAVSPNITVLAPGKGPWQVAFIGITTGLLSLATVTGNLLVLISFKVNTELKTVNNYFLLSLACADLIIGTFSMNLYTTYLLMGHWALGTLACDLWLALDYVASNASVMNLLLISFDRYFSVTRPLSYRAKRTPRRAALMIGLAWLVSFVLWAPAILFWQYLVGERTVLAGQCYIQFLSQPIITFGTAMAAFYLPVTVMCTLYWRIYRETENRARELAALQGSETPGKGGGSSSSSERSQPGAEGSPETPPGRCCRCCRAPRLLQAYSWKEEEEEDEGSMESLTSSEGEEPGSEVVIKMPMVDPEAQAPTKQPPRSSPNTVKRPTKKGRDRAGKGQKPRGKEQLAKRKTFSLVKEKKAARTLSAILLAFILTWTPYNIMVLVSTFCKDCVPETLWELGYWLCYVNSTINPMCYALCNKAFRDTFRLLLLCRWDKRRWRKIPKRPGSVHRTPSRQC
In words: Measurement of M1 receptor positive allosteric modulator (M1PAM) activity (IP1 HTRF, in presence of EC20 acetylcholine). It is filed as cell-based. Conditions: CHO-K1 cells stably expressing hCHRM1; acetylcholine at EC20 concentration; IP1 readout. On the procedure: Measurement of M1 Receptor Positive Allosteric Modulator (M1PAM) Activity
The activity of a test compound in the presence of acetylcholine at an EC20 concentration affording about 20% action of the maximum activity was measured as PAM activity.
The method therefor is as follows. To a 384-well white plate (Greiner) was added 4 μL of the test compound diluted with IP1 Stimulation buffer (CisBio) containing 0.1% fatty acid-free BSA containing 80 nM acetylcholine. Freeze stock of CHO-K1 cells stably expressing human M1 receptor (hCHRM1) was prepared with IP1 Stimulation buffer (CisBio) containing 0.1% fatty acid-free BSA, 4 μL thereof was added (10,000 cells/well) and the mixture was cultured in a 5% CO2 incubator at 37° C. for 1 hr. 4 μL of a solution (CisBio) containing IP1-d2 and Anti-IP1-cryptate Tb conjugate was added, the mixture was incubated at room temperature for 1 hr, and the time-resolved fluorescence signal was measured on an Envision plate reader (PerkinElmer). The activity (%) of the test compound was calculated by defining the value when acetylcholine was added at the final concentration of 20 μM as 100% and the value when DMSO was added instead of the test compound under acetylcholine-free conditions as 0%, and the EC50 value was calculated as a value of 50% of the concentration dependence curve of the test compound.
On the technique in general: Time-resolved FRET reads energy transfer from a long-lived donor to a nearby acceptor.

As a reminder, the pEC50 is the EC50 on a negative log10 scale, so that one unit is a factor of ten.

pEC50: −log10 of the molar value.

For the compound `CNC(=O)c1ccc(Cc2cc(C(=O)N[C@H]3CCOC[C@@H]3O)c3c(c2C)CCO3)cc1F` [Example 21, 1,5-anhydro-2,3-dideoxy-3-[(5-{[3-fluoro-4-(methylcarbamoyl)phenyl]methyl)-4-methyl-2,3-dihydro-1-benzofuran-7-carbonyl)amino]-L-threo-pentitol], the pEC50 is 7.62. For the compound `Cc1c(Cc2ccc(C(N)=O)cc2)cc(C(=O)N[C@H]2CCOC[C@@H]2O)c2c1CCO2` [Example 5, 1,5-anhydro-3-({5-[(4-carbamoylphenyl)methyl]-4-methyl-2,3-dihydro-1-benzofuran-7-carbonyl}amino)-2,3-dideoxy-L-threo-pentitol], the pEC50 is 7.92. To `Cc1nn(C)cc1-c1ccc(Cc2cc(C(=O)N[C@H]3CCOC[C@@H]3O)c3c(c2C)CCO3)cn1` [Example 3, 1,5-anhydro-2,3-dideoxy-3-[(5-{[6-(1,3-dimethyl-1H-pyrazol-4-yl)pyridin-3-yl]methyl}-4-methyl-2,3-dihydro-1-benzofuran-7-carbonyl)amino]-L-threo-pentitol] belongs 7.34; to `Cc1c(Cc2ccc(C(=O)NC[C@@H]3CCCO3)c(F)c2)cc(C(=O)N[C@H]2CCOC[C@@H]2O)c2c1CCO2` [Example 30, 1,5-anhydro-2,3-dideoxy-3-[(5-{[3-fluoro-4-({[(2S)-oxolan-2-yl]methyl}carbamoyl)phenyl]methyl}-4-methyl-2,3-dihydro-1-benzofuran-7-carbonyl)amino]-L-threo-pentitol], 7.25; to `Cc1c(Cc2ccc(C(=O)NC3CC3)c(F)c2)cc(C(=O)N[C@H]2CCOC[C@@H]2O)c2c1CCO2` [Example 31, 1,5-anhydro-3-[(5-{[4-(cyclopropylcarbamoyl)-3-fluorophenyl]methyl}-4-methyl-2,3-dihydro-1-benzofuran-7-carbonyl)amino]-2,3-dideoxy-L-threo-pentitol], 7.43. As for `CNC(=O)c1ccc(Cc2cc(C(=O)N[C@H]3CCOC[C@@H]3O)c3c(c2C)CCO3)cn1` [Example 36, 1,5-anhydro-2,3-dideoxy-3-[(4-methyl-5-{[6-(methylcarbamoyl)pyridin-3-yl]methyl}-2,3-dihydro-1-benzofuran-7-carbonyl)amino]-L-threo-pentitol], the pEC50 was 6.89. As to `Cc1c(Cc2ccc(C(=O)NCCF)c(F)c2)cc(C(=O)N[C@H]2CCOC[C@@H]2O)c2c1CCO2` [Example 35, 1,5-anhydro-2,3-dideoxy-3-{[5-({3-fluoro-4-[(2-fluoroethyl)carbamoyl]-phenyl}methyl)-4-methyl-2,3-dihydro-1-benzofuran-7-carbonyl]amino}-L-threo-pentitol], the pEC50 is 7.80. Regarding `Cc1c(Cc2ccc(-c3cnn(C)c3)nc2)cc(C(=O)N[C@H]2CCOC[C@@H]2O)c2c1CCO2` [Example 2, 1,5-anhydro-2,3-dideoxy-3-[{4-methyl-5-{[6-(1-methyl-1H-pyrazol-4-yl)pyridin-3-yl]methyl}-2,3-dihydro-1-benzofuran-7-carbonyl)amino]-L-threo-pentitol], the pEC50 was 7.48.
